From ChEMBL document CHEMBL1201862, “PubChem BioAssay data set” (2004) come the findings set out here.

Activity calls are given as the source filed them.

The subject of one series is P388/ADR. As to the kind of experiment: cells. The following applies: Mus musculus. In kind it is functional.
In a further series the test system is SN12K1. Nature of the series: cells. The series is classed as functional. The settings on record: Homo sapiens.
A further series deals with P388. As to the kind of experiment: cells. The series is classed as functional. The following applies: Mus musculus.
The next series has as its target Cytochrome P450 3A4 (Homo sapiens, UniProt P08684).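 Further: CYP3A4 tested as one member of a cytochrome P450 panel screen.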
A further series concerns the target Cytochrome P450 2C9 (Homo sapiens, UniProt P11712).
For the next series, the target named is Cytochrome P450 2C19 (Homo sapiens, UniProt P33261). Nature of the series: Cytochrome panel assay with activity outcomes. Panel member name: p450-cyp2c19 Compounds with AC50 equal or less than 10 uM are considered active. The settings on record: read-out: AC50. In kind it is functional.
Chain of Cytochrome P450 2C19 (P33261 whole entry): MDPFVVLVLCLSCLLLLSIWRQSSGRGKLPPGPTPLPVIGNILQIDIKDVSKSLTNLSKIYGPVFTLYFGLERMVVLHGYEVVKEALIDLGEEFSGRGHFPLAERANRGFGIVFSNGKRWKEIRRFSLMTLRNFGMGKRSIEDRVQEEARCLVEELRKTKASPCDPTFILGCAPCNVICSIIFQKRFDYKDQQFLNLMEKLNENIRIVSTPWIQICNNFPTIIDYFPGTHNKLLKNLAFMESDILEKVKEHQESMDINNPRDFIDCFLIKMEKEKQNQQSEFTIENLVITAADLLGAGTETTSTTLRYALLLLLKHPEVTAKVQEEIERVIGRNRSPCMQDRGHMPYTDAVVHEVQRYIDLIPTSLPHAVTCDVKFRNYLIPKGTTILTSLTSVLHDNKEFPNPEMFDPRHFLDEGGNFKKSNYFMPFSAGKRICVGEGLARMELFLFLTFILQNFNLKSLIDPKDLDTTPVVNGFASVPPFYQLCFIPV
The target in another series is Cytochrome P450 2D6 (Homo sapiens, UniProt P10635).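 Further: CYP2D6 member of a cytochrome P450 panel assay.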
Chain of Cytochrome P450 2D6 (P10635 whole entry): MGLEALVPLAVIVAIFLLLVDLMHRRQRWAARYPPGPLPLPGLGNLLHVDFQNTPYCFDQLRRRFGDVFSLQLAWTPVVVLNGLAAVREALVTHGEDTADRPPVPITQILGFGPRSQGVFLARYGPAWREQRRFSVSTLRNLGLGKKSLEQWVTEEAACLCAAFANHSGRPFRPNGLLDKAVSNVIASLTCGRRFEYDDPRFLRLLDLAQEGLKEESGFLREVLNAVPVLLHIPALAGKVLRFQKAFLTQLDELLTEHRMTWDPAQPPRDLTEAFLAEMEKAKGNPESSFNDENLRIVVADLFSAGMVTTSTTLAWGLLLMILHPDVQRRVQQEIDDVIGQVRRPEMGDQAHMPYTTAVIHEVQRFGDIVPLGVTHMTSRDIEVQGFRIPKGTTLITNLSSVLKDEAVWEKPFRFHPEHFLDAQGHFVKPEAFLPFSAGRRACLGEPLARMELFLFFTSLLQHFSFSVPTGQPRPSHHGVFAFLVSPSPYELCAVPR
The target of a further series is T1, Leucine aminopeptidase (Plasmodium falciparum 3D7, UniProt Q8IL11).
T1 sequence (Q8IL11 whole entry): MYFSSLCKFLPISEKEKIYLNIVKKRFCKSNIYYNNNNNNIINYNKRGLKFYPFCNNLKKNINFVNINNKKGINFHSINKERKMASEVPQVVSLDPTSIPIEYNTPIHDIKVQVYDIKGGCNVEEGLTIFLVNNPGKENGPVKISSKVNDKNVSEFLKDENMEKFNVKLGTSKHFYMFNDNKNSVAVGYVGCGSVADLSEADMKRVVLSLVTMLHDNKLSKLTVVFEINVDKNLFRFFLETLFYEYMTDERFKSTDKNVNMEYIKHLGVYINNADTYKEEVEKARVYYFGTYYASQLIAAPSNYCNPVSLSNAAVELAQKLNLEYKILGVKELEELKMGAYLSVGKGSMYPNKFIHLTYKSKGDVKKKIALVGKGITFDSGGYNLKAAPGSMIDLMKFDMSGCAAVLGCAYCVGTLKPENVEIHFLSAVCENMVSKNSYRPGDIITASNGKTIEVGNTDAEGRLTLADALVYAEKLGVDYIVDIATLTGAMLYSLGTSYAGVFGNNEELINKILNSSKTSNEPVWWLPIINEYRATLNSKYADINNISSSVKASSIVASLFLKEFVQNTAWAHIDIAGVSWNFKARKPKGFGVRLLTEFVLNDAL
Nature of the series: P. falciparum M17LAP inhibitors, primary screen, biochemical, fluorogenic H-Leu-NHMec substrate, 1536-well (AID 1619). In kind it is functional.

The target of series [1] is T2, Replicative DNA helicase DnaB (Mycobacterium tuberculosis, UniProt P9WMR3).
T2 sequence (P9WMR3 whole entry): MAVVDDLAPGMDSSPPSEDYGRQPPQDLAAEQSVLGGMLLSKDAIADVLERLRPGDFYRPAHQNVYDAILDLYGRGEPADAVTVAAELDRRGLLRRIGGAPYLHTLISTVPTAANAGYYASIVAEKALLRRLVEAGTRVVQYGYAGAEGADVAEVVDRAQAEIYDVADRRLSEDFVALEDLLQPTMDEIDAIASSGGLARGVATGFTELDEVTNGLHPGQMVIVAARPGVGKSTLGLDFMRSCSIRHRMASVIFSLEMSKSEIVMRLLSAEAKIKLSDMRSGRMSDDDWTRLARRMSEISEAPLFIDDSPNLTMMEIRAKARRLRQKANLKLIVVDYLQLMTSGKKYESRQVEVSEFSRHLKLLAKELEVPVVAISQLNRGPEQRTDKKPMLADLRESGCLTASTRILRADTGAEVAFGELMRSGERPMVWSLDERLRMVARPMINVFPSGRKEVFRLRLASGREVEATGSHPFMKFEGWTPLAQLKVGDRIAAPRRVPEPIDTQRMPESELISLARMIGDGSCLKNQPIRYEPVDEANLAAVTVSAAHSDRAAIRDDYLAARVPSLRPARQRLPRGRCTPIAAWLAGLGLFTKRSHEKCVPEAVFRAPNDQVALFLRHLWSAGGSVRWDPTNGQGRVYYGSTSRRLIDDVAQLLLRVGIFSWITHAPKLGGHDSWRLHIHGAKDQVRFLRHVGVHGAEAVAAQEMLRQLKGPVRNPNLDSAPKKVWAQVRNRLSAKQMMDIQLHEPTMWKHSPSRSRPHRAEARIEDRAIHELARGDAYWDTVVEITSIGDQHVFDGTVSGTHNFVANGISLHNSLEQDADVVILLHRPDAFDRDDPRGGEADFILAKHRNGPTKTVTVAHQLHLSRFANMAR
As to the kind of experiment: DnaB intein splicing inhibitors, dose response, biochemical, cell-free fluorescence (AID 449749). The series is classed as functional.

For another series, the target named is T3, Protein RecA (Mycobacterium tuberculosis, UniProt P9WHJ3).
T3 sequence (P9WHJ3 whole entry): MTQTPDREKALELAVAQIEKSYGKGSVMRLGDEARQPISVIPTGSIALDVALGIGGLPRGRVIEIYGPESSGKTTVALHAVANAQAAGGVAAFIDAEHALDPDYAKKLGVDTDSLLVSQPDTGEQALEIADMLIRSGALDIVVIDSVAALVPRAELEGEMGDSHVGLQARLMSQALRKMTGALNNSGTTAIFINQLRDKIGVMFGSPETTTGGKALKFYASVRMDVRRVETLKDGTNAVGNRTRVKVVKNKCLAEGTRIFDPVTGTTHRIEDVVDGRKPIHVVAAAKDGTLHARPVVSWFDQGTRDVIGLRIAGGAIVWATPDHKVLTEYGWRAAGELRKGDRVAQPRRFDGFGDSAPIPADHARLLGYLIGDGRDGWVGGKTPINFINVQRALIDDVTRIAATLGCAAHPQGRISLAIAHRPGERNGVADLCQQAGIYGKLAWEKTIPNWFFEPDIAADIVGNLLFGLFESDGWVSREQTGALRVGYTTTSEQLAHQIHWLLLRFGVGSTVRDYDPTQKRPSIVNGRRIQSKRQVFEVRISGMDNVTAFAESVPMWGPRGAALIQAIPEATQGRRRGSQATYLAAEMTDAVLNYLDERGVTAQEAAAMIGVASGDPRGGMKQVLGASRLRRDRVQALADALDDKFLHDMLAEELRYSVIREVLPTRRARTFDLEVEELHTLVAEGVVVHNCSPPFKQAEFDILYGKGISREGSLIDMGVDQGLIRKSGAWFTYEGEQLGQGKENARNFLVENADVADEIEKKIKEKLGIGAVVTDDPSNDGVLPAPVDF
As to the kind of experiment: Fluorescence Cell-Free Homogeneous Dose Retest to Identify Inhibitors of RecA-Intein Splicing Activity. [Related pubchem assays (depositor defined):AID2097, AID2223, AID489010, AID492950]. In kind it is functional.

In the next series the target is Large T antigen (Simian virus 40, UniProt P03070). In kind it is functional, Betapolyomavirus macacae.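 Further: Confirmatory-stage PubChem screen for compounds that inhibit SV40 T antigen.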
Chain of Large T antigen (P03070 whole entry): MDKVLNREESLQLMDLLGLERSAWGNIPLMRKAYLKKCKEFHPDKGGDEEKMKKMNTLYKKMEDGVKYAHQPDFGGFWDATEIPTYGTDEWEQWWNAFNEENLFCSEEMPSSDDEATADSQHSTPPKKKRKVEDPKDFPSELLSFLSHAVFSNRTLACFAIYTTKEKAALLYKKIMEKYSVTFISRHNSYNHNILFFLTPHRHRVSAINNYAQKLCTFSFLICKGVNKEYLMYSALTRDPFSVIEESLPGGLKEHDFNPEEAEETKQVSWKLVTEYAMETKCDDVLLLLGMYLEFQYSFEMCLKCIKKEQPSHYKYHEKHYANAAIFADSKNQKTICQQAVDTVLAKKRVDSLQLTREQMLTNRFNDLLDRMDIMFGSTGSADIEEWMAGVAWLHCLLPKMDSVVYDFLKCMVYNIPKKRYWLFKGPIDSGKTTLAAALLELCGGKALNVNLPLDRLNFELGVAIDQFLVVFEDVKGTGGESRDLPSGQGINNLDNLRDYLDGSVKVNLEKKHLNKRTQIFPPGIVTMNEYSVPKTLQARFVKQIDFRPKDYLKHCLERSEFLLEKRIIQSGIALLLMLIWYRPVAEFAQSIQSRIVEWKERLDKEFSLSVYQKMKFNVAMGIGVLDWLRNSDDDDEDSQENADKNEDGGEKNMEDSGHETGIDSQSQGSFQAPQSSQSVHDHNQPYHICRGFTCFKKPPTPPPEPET
Series [2] addresses T4, Rac GTPase-activating protein 1 (Homo sapiens, UniProt Q9H0H5).
T4 sequence (Q9H0H5 whole entry): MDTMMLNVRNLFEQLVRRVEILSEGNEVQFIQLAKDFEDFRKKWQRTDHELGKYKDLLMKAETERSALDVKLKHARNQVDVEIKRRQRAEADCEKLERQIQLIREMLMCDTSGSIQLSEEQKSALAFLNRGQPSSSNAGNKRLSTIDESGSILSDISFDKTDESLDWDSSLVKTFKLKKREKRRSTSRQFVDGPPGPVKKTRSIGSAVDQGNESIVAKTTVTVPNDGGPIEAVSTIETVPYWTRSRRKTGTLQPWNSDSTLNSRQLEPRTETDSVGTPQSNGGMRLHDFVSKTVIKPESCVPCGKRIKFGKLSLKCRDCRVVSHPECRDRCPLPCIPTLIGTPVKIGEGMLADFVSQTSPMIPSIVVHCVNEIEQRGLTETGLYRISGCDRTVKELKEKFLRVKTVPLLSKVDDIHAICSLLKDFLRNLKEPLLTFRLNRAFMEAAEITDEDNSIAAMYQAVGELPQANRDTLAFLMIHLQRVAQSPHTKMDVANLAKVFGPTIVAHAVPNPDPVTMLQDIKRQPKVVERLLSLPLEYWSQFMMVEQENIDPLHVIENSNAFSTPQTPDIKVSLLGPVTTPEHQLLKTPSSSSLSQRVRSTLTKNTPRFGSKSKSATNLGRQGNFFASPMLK
Nature of the series: blockers of MgcRacGAP-driven Rac1 GTP hydrolysis – biochemical, ADP Hunter fluorescence, primary and confirmatory, confirmation (AID 624330). The series is classed as functional.

The next series deals with T5, Cytochrome P450 1A2 (Homo sapiens, UniProt P05177).
T5 sequence (P05177 whole entry): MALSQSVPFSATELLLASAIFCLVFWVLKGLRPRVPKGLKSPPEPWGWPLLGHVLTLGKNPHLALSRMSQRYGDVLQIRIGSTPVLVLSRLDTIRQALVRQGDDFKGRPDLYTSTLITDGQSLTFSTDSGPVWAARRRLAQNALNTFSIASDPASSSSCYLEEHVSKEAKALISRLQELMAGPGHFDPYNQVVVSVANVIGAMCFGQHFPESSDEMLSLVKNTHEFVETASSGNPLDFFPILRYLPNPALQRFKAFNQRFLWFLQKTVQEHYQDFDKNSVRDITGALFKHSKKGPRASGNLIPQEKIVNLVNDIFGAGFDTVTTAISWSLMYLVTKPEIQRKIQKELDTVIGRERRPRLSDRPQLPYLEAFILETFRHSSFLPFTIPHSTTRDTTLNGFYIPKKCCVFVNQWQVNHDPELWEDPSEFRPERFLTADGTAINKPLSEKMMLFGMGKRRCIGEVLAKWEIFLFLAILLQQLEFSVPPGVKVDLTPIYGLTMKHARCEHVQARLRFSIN

Chain of Cytochrome P450 2C9 (P11712 whole entry): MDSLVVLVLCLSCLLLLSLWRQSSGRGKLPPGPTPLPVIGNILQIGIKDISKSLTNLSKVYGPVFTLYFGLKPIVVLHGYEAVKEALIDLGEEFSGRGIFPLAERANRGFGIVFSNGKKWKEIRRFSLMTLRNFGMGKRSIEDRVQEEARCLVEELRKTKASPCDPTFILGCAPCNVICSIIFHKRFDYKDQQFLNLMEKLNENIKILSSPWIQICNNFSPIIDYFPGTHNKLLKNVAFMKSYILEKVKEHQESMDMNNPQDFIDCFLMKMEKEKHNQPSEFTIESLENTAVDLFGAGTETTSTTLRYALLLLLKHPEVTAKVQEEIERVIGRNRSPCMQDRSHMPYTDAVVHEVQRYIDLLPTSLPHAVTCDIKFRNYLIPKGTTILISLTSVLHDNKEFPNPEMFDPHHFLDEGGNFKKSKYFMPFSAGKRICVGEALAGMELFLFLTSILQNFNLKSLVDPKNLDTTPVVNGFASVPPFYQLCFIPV
Chain of Cytochrome P450 3A4 (P08684 whole entry): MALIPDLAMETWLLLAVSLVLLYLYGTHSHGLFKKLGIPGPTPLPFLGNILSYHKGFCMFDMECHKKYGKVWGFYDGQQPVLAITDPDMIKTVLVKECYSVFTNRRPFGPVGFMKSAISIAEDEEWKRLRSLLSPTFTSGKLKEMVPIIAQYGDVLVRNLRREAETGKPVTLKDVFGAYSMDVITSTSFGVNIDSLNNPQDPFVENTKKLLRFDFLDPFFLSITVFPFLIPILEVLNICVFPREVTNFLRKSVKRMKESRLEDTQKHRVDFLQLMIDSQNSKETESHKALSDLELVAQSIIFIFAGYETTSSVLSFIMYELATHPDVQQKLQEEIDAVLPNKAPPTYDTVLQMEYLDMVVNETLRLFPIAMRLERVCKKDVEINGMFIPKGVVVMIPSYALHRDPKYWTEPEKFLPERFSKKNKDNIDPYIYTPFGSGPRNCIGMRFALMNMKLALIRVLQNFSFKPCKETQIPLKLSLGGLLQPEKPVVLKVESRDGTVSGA

For orientation: GI50 means the concentration at which growth is held to half of that of the control. For `CC1[C@@H]2CC=C3C4CCC5Cc6nc7c(nc6C[C@@]5(C)C4CC(=O)[C@]32CO[C@@]1(O)C(O)CC(C)(C)O)CC1CCC2C3=C[C@H]4O[C@@]5(O[C@@](C)(CO)C[C@@H]5O)C(C)[C@@]4(O)[C@]3(C)[C@@H](O)CC2[C@]1(C)C7` (stereo partly specified), the results for the GI50 in the series on P388/ADR, with SN12K1 and with P388 were 0.0105 µM (active), < 0.00036 µM (active) and < 0.00036 µM (active), respectively.

In the case of `COCCO` [2-METHOXYETHANOL], the GI50 with P388/ADR, in the series with SN12K1 and in the series on P388 was > 100 µM (inactive) throughout.

`Nc1n[nH]c(N)n1` [GUANAZOLE]: the GI50 in the series on P388/ADR was 1060 µM (inactive); in the series with SN12K1, 2830 µM (inactive); in the series on P388, 728 µM (inactive).

The AC50 is the concentration at which the activity in the assay is half-maximal. Take `Cc1ccccc1C(=O)NN(C)c1nc2ccccc2nc1C(F)(F)F`: the results for the AC50 at Cytochrome P450 3A4 and at Cytochrome P450 2C9 were 7.08 µM (inconclusive) and “inconclusive”, respectively.

With `CC[C@](O)(C(=O)O)c1cc2n(c(=O)c1CO)Cc1cc3ccccc3nc1-2`, the values for the concentration for 50% growth inhibition (GI50) with P388/ADR, with SN12K1 and with P388 were 0.03 µM (active), 0.209 µM (active) and 0.025 µM (active), respectively.

Regarding `NC(Cc1c[nH]c2ccccc12)C(=O)O` (stereo not drawn) [DL-TRYPTOPHAN], the GI50 in the series on P388/ADR is > 300 µM (inactive); with SN12K1, > 300 µM (inactive); with P388 it was 269 µM (inactive).

Take `CC(=O)[C@H]1CCC2[C@@H]3CC=C4C(O)C(OS(=O)(=O)O)CC[C@]4(C)C3CC[C@@]21C` (stereo partly specified): the GI50 in the series with P388/ADR, in the series on SN12K1 and in the series with P388 was > 100 µM (inactive) each time.

For the compound `COc1ccc(CNc2nc(-c3ccccc3CN(C)C)nc3ccccc23)c(OC)c1`, the AC50 on Cytochrome P450 2C19 is 15.8 µM (inconclusive); at Cytochrome P450 2C9, “inconclusive”.

Take `CCn1c(SC)nnc1C1CCN(S(=O)(=O)c2ccc(OC)cc2)CC1`: the figures for the AC50 at Cytochrome P450 2D6 and on Cytochrome P450 2C9 were 8.91 µM (inconclusive) and “inconclusive”, respectively.

In the case of `CS(=O)(=O)Nc1cccc(-c2cc(Nc3ccccc3)ncn2)c1`, the AC50 was 31.6 µM (inconclusive) at Cytochrome P450 2C19, 25.1 µM (inconclusive) at Cytochrome P450 2D6 and “inconclusive” on Cytochrome P450 2C9.

Consider `NC1CCCCC1`, for which the GI50 is 243 µM (inactive) in the series on SN12K1 and 92.9 µM (inactive) in the series with P388.

Broadly, the IC50 is the concentration that inhibits the measured activity by half. One may read the EC50 as the midpoint of the concentration-response curve. Regarding `Cc1ccc(-c2n[nH]c3c2C(C)C(C#N)=C(N)O3)cc1` (stereo unspecified), the IC50 at Leucine aminopeptidase was 16.3 µM (active). The AC50 in [1] is > 380 µM (inconclusive). For the same compound, at Protein RecA, the EC50 was 0.518 µM (active).

Take `O=C1C2C3C=CC(CC3)C2C(=O)N1/N=C/c1ccc(O)c(O)c1` (stereo unspecified): the values for the IC50 (on Leucine aminopeptidase; at Large T antigen; in series [2]) were 34.3 µM (active), 4.4 µM (active) and 74 µM (active), respectively.

As to `CCCCCCCCCCCCCCCCCC(=O)NC[C@@H](COP(=O)([O-])OCC[N+](C)(C)C)OCC`, the AC50 on Cytochrome P450 2D6 was 39.8 µM (inconclusive); on Cytochrome P450 1A2, 39.8 µM (inconclusive); at Cytochrome P450 2C9, “inconclusive”.

`CCc1ccccc1N1CCN(C(=O)c2cc(OC)c(OC)c(OC)c2)CC1`: the GI50 in the series with P388/ADR was 0.119 µM (active); with SN12K1, 0.0614 µM (active); in the series with P388 it was 0.0395 µM (active).
